In the supplement of paper PMC9663587:

Key:
Test in all cases: increase in dead-cell fraction, 72 h; higher = more death;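 further: breast cancer cell lines in 384-well plates, stained with Hoechst plus LIVE/DEAD far red dye and imaged, cells above an LDR intensity threshold counted dead, Hoechst-negative corpses included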
LEE011/Ribociclib = compound: CN(C)C(=O)c1cc2cnc(Nc3ccc(N4CCNCC4)cn3)nc2n1C1CCCC1 [LEE011/Ribociclib]
THZ1 = compound: CN(C)C/C=C/C(=O)Nc1ccc(C(=O)Nc2cccc(Nc3ncc(Cl)c(-c4c[nH]c5ccccc45)n3)c2)cc1 [THZ1]
Flavopiridol = compound: CN1CC[C@H](c2c(O)cc(O)c3c(=O)cc(-c4ccccc4Cl)oc23)[C@H](O)C1 [Flavopiridol]
THZ531 = compound: CN(C)C/C=C/C(=O)Nc1ccc(C(=O)N2CCC[C@@H](Nc3ncc(Cl)c(-c4c[nH]c5ccccc45)n3)C2)cc1 [THZ531]
[1] = compound: CCN1CCN(Cc2ccc(Nc3ncc(F)c(-c4cc(F)c5nc(C)n(C(C)C)c5c4)n3)nc2)CC1
[2] = compound: CC(=O)c1c(C)c2cnc(Nc3ccc(N4CCNCC4)cn3)nc2n(C2CCCC2)c1=O

HCC1143
increase in dead-cell fraction (LEE011/Ribociclib; 0.001 µM): -0.0077
increase in dead-cell fraction (LEE011/Ribociclib; 0.003162 µM): 0.0012
increase in dead-cell fraction (LEE011/Ribociclib; 0.01 µM): 0
increase in dead-cell fraction (LEE011/Ribociclib; 0.03162 µM): 0.001
increase in dead-cell fraction (LEE011/Ribociclib; 0.1 µM): 0.0077
increase in dead-cell fraction (LEE011/Ribociclib; 0.3162 µM): 0.0065
increase in dead-cell fraction (LEE011/Ribociclib; 1 µM): 0.0007
increase in dead-cell fraction (LEE011/Ribociclib; 3.162 µM): 0.009
increase in dead-cell fraction (LEE011/Ribociclib; 10 µM): 0.0365
increase in dead-cell fraction (THZ1; 0.0001 µM): -0.0073
increase in dead-cell fraction (THZ1; 0.0003162 µM): -0.0031
increase in dead-cell fraction (THZ1; 0.001 µM): -0.0053
increase in dead-cell fraction (THZ1; 0.003162 µM): -0.0066
increase in dead-cell fraction (THZ1; 0.01 µM): 0.0051
increase in dead-cell fraction (THZ1; 0.03162 µM): 0.0382
increase in dead-cell fraction (THZ1; 0.1 µM): 0.162
increase in dead-cell fraction (THZ1; 0.3162 µM): 0.192
increase in dead-cell fraction (THZ1; 1 µM): 0.165
increase in dead-cell fraction (Flavopiridol; 0.0001 µM): -0.0098
increase in dead-cell fraction (Flavopiridol; 0.0003162 µM): -0.0008
increase in dead-cell fraction (Flavopiridol; 0.001 µM): -0.0018
increase in dead-cell fraction (Flavopiridol; 0.003162 µM): 0.0048
increase in dead-cell fraction (Flavopiridol; 0.01 µM): 0.0022
increase in dead-cell fraction (Flavopiridol; 0.03162 µM): -0.0053
increase in dead-cell fraction (Flavopiridol; 0.1 µM): 0.0185
increase in dead-cell fraction (Flavopiridol; 0.3162 µM): 0.0656
increase in dead-cell fraction (Flavopiridol; 1 µM): 0.228
increase in dead-cell fraction (THZ531; 0.0001 µM): 0.0046
increase in dead-cell fraction (THZ531; 0.0003162 µM): 0.0047
increase in dead-cell fraction (THZ531; 0.001 µM): 0.0003
increase in dead-cell fraction (THZ531; 0.003162 µM): 0.0002
increase in dead-cell fraction (THZ531; 0.01 µM): -0.0009
increase in dead-cell fraction (THZ531; 0.03162 µM): 0.0121
increase in dead-cell fraction (THZ531; 0.1 µM): 0.0256
increase in dead-cell fraction (THZ531; 0.3162 µM): 0.117
increase in dead-cell fraction (THZ531; 1 µM): 0.134
increase in dead-cell fraction ([1]; 0.001 µM): -0.0049
increase in dead-cell fraction ([1]; 0.003162 µM): -0.0032
increase in dead-cell fraction ([1]; 0.01 µM): -0.0047
increase in dead-cell fraction ([1]; 0.03162 µM): 0.0015
increase in dead-cell fraction ([1]; 0.1 µM): -0.003
increase in dead-cell fraction ([1]; 0.3162 µM): -0.0023
increase in dead-cell fraction ([1]; 1 µM): 0.0074
increase in dead-cell fraction ([1]; 3.162 µM): 0.0254
increase in dead-cell fraction ([1]; 10 µM): 0.124
increase in dead-cell fraction ([2]; 0.0003162 µM): 0.0048
increase in dead-cell fraction ([2]; 0.001 µM): 0.0021
increase in dead-cell fraction ([2]; 0.003162 µM): -0.0047
increase in dead-cell fraction ([2]; 0.01 µM): -0.0052
increase in dead-cell fraction ([2]; 0.03162 µM): -0.0059
increase in dead-cell fraction ([2]; 0.1 µM): -0.0023
increase in dead-cell fraction ([2]; 0.3162 µM): -0.0052
increase in dead-cell fraction ([2]; 1 µM): -0.0085
increase in dead-cell fraction ([2]; 3.162 µM): 0.0036
